Format in all cases: biochemical
Holding throughout (details): ADP-Glo SIK kinase assay

The target in one assay is T1, SIK2 (Homo sapiens, UniProt Q9H0K1).
T1 construct: purchased ThermoFisher Scientific PV4792
The assay is described as follows: ADP-Glo kinase assay, SIK2. Summed up: (§1)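 ADP-Glo, RT throughout. Enz/substrate + ATP, 120 min; ADP-Glo reagent 40 min (ATP depletion); detection reagent 30 min; luminescence read. Neg ctrl 1% DMSO, pos ctrl 10 μM staurosporine, final concs.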

In the next assay the target is T2, SIK3 (Homo sapiens, UniProt Q9Y2K2).
T2 construct: purchased SignalChem S12-11G-100
Description: ADP-Glo kinase assay, SIK3. In short, it runs like this:
as §1

The next assay has as its target T3, SIK1 (Homo sapiens, UniProt P57059).
T3 construct: purchased Carna Biosciences 02-131
Description: ADP-Glo kinase assay, SIK1. Summed up: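 Wells with 1% DMSO or 10 μM staurosporine (final) define the control window. The kinase reaction with substrate and ATP runs 120 min at RT, followed by ADP-Glo detection: ATP depletion (40 min) and ADP-derived luminescence (30 min).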
A general note: In ADP-Glo the light output rises with the ADP produced.

Bounds are passed on as bounds.

T2 sequence (Q9Y2K2 whole entry): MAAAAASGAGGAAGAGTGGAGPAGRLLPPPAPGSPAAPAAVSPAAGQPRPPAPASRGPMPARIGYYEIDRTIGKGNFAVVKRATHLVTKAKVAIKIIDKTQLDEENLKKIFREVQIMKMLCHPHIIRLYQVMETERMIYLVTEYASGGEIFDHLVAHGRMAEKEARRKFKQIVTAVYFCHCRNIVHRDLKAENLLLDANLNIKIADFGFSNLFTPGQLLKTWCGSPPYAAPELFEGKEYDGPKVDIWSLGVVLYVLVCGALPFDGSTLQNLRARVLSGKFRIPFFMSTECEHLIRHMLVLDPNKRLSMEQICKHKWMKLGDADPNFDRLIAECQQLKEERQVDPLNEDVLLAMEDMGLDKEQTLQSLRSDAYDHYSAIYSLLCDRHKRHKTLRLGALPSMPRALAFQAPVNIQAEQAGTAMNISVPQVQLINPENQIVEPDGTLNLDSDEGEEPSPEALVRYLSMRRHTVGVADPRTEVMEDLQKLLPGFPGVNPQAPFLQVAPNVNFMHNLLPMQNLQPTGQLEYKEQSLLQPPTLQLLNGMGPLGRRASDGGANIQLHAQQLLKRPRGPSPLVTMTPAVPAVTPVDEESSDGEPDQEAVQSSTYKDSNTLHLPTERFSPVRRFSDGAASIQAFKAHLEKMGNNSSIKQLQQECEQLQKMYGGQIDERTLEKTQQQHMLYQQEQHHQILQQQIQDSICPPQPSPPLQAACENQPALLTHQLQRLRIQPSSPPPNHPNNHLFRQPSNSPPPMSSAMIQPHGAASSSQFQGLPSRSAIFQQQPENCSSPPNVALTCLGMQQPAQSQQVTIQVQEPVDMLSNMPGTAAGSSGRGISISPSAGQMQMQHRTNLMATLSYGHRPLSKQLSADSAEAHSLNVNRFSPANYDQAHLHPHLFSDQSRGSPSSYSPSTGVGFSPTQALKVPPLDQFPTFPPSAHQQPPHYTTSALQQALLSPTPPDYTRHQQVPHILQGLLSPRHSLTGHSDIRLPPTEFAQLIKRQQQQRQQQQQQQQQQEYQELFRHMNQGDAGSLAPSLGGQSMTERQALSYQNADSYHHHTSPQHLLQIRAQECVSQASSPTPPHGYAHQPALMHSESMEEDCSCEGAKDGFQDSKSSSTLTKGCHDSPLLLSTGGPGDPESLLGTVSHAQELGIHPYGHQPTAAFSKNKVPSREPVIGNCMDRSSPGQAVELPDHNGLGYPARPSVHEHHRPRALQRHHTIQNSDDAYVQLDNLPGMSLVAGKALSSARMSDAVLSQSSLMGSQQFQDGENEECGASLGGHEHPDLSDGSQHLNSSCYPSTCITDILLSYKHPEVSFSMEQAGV
T1 sequence (Q9H0K1 whole entry): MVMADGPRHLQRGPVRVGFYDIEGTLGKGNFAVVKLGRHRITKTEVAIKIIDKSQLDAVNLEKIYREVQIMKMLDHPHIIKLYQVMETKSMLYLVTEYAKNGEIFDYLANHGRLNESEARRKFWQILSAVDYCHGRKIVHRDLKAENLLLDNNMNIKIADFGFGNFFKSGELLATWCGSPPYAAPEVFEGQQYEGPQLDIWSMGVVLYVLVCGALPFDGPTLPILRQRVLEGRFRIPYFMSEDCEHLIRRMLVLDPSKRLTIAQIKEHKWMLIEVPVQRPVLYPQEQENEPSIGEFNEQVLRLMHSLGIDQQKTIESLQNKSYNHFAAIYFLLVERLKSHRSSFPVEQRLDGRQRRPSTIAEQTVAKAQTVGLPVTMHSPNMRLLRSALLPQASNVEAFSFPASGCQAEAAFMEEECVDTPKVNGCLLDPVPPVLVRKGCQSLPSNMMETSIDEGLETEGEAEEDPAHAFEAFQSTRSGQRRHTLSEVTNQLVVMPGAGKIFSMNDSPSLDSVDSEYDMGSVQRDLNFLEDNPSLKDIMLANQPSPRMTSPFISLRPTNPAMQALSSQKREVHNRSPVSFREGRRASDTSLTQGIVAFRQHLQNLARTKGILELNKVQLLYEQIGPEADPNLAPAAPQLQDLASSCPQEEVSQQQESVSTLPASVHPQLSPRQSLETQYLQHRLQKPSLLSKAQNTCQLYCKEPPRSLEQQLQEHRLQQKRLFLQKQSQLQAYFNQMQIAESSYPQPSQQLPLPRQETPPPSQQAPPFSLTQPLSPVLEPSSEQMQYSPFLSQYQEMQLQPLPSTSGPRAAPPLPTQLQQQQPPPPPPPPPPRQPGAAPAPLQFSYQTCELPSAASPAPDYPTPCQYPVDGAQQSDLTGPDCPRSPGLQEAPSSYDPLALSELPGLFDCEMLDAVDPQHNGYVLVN
T3 sequence (P57059 whole entry): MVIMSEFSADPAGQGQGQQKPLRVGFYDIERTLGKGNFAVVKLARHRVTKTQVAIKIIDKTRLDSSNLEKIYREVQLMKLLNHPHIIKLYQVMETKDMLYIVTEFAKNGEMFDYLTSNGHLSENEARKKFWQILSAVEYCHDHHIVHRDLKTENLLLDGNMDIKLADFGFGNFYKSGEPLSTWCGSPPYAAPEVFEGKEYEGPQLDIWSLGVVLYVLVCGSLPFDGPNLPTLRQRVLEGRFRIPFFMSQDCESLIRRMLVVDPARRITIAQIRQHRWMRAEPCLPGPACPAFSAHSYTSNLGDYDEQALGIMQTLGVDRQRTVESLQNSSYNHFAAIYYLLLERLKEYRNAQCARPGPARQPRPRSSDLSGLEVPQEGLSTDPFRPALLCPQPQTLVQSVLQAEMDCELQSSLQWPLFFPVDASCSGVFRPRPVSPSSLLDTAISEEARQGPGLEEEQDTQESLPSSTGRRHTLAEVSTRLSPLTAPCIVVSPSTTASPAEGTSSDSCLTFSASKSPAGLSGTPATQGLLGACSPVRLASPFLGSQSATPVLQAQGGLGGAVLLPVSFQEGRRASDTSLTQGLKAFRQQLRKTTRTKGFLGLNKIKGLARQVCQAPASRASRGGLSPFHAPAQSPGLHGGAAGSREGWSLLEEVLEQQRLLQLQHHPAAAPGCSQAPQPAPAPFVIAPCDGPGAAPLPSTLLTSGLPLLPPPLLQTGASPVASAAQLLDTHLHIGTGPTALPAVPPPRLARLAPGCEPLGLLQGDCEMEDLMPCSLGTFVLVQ

`COc1cc(-c2cnc3cc(OCC4CCCN(C=O)C4)ccn23)cc(OC(F)F)c1C(=O)NC1CC1` (stereo not drawn) [compound 142, N-cyclopropyl-2-(difluoromethoxy)-4-[7-[(1-formyl-3-piperidyl)methoxy]imidazo [1,2-a]pyridin-3-yl]-6-methoxy-benzamide]: the IC50 against SIK2, against SIK3 and on SIK1 was 0.01 to 10 nM throughout.

In the case of `COc1cc(-c2cnc3cc(OC[C@H]4CCCN(CCO)C4)ccn23)cc(OC(F)F)c1C(=O)NC1CC1` [Cpd 340, N-cyclopropyl-2-(difluoromethoxy)-4-[7-[[(3S)-1-(2-hydroxyethyl)-3-piperidyl]methoxy]imidazo [1,2-a]pyridin-3-yl]-6-methoxy-benzamide], the figures for the concentration for half-maximal inhibition (IC50) on SIK2, on SIK3 and at SIK1 were 0.01 to 10 nM, 0.01 to 10 nM and 10 to 100 nM, respectively.

Take `COc1cc(-c2cnc3cc(OCC4(C)CN(C(=O)OC(C)(C)C)C4)ccn23)cc2c1C(=O)N(CC(F)(F)F)CC2` [compound 249, tert-butyl 3-[[3-[8-methoxy-1-oxo-2-(2,2,2-trifluoroethyl)-3,4-dihydroisoquinolin-6-yl]imidazo[1,2-a]pyridin-7-yl]oxymethyl]-3-methyl-azetidine-1-carboxylate]: the values for the IC50 at SIK2, against SIK3 and against SIK1 were 10 to 100 nM, 0.01 to 10 nM and 100 to 500 nM, respectively.

On to `COc1cc(-c2cnc3cc(OCC4CCCCN4)ccn23)cc(OC(F)F)c1C(=O)NC1CC1` (stereo not drawn) [compound 119, N-cyclopropyl-2-(difluoromethoxy)-6-methoxy-4-[7-(2-piperidylmethoxy)imidazo[1,2-a]pyridin-3-yl]benzamide], for which the IC50 against SIK2 is 0.01 to 10 nM; against SIK3 it was 0.01 to 10 nM; on SIK1 it was 10 to 100 nM.

Turning to `COc1cc(-c2cnc3cc(OCCN4CCOC(C)C4)ccn23)cc(OC(F)F)c1C(=O)NC1CC1` (stereo not drawn) [compound 214, N-cyclopropyl-2-(difluoromethoxy)-6-methoxy-4-[7-[2-(2-methylmorpholin-4-yl)ethoxy]imidazo[1,2-a]pyridin-3-yl] benzamide], the results for the IC50 against SIK2, against SIK3 and at SIK1 were 0.01 to 10 nM, 0.01 to 10 nM and 10 to 100 nM, respectively.

`COc1cc(-c2cnc3cc(OCc4cncs4)ccn23)cc(OC(F)F)c1C(=O)NC1CC1` [compound 95, N-cyclopropyl-2-(difluoromethoxy)-6-methoxy-4-[7-(thiazol-5-ylmethoxy)imidazo[1,2-a]pyridin-3-yl]benzamide]: the IC50 fell in the range of 0.01 to 10 nM at SIK2, 0.01 to 10 nM at SIK3 and 10 to 100 nM against SIK1.

Take `COc1cc(-c2cnc3cc(OCCN4CCOCC4C)ccn23)cc(OC(F)F)c1C(=O)NC1CC1` (stereo not drawn) [compound 232, N-cyclopropyl-2-(difluoromethoxy)-6-methoxy-4-[7-[2-(3-methylmorpholin-4-yl)ethoxy]imidazo [1,2-a]pyridin-3-yl]benzamide]: the IC50 at SIK2 lay in the range of 0.01 to 10 nM; at SIK3 it was 0.01 to 10 nM; against SIK1 it was 10 to 100 nM.

As to `COc1cc(-c2cnc3cc(OCC(F)(F)F)ccn23)cc(OC(F)F)c1C(=O)NC1CC1` [compound 91, N-cyclopropyl-2-(difluoromethoxy)-6-methoxy-4-[7-(2,2,2-trifluoroethoxy)imidazo [1,2-a]pyridin-3-yl]benzamide], the IC50 on SIK2 fell in the range of 0.01 to 10 nM; against SIK3 it was 0.01 to 10 nM; against SIK1 it was 10 to 100 nM.

As to `CNC(C)(C)COc1ccn2c(-c3cc(OC)c(C(=O)NC4CC4)c(OC(F)F)c3)cnc2c1` [Cpd 153, N-cyclopropyl-2-(difluoromethoxy)-6-methoxy-4-[7-[2-methyl-2-(methylamino)propoxy]imidazo[1,2-a]pyridin-3-yl]benzamide], the figures for the IC50 at SIK2, at SIK3 and on SIK1 were 0.01 to 10 nM, 0.01 to 10 nM and 100 to 500 nM, respectively.

Take `COc1cc(-c2cnc3cc(OCCCN4CCCCC4)ccn23)cc(OC(F)F)c1C(=O)N1CC(C#N)C1` [Cpd 357, 1-[2-(difluoromethoxy)-6-methoxy-4-[7-[3-(1-piperidyl)propoxy]imidazo[1,2-a]pyridin-3-yl]benzoyl]azetidine-3-carbonitrile]: the IC50 fell in the range of 0.01 to 10 nM at SIK2, 0.01 to 10 nM against SIK3 and 10 to 100 nM against SIK1.

As for `COc1cc(-c2cnc3cc(OCCN4CCOCC4(C)C)ccn23)cc(OC(F)F)c1C(=O)NC1CC1` [compound 192, N-cyclopropyl-2-(difluoromethoxy)-4-[7-[2-(3,3-dimethylmorpholin-4-yl)ethoxy]imidazo[1,2-a]pyridin-3-yl]-6-methoxy-benzamide], the IC50 against SIK2 fell in the range of 0.01 to 10 nM; at SIK3, 0.01 to 10 nM; on SIK1, 10 to 100 nM.

Regarding `COC(=O)C1(COc2ccn3c(-c4cc(OC)c(C(=O)NC5CC5)c(OC(F)F)c4)cnc3c2)CC1` [compound 57, methyl 1-[[3-[4-(cyclopropylcarbamoyl)-3-(difluoromethoxy)-5-methoxy-phenyl]imidazo[1,2-a]pyridin-7-yl]oxymethyl] cyclopropanecarboxylate], the 50% inhibitory concentration (IC50) was in the range of 0.01 to 10 nM against SIK2, 0.01 to 10 nM at SIK3 and 10 to 100 nM at SIK1.

For the molecule `COc1cc(-c2cnc3cc(OCCCN4[C@H](C)CCC[C@@H]4C)ccn23)cc(OC(F)F)c1C(=O)NC1CC1` [compound 352, N-cyclopropyl-2-(difluoromethoxy)-4-[7-[3-[(2R,6S)-2,6-dimethyl-1-piperidyl]propoxy]imidazo [1,2-a]pyridin-3-yl]-6-methoxy-benzamide], the IC50 on SIK2, on SIK3 and against SIK1 was 0.01 to 10 nM each time.

In the case of `CCOc1cc(-c2cnc3cc(OCCN(C)C)ccn23)cc2c1C(=O)N(CC(F)(F)F)CC2` [compound 140, 6-[7-[2-(dimethylamino)ethoxy]imidazo[1,2-a]pyridin-3-yl]-8-ethoxy-2-(2,2,2-trifluoroethyl)-3,4-dihydroisoquinolin-1-one], the results for the IC50 at SIK2, against SIK3 and at SIK1 were 10 to 100 nM, 100 to 500 nM and above 500 nM, respectively.

`COc1cc(-c2cnc3cc(OC[C@H]4CCNC4)ccn23)cc(OC(F)F)c1C(=O)NC1CC1` [Cpd 314, N-cyclopropyl-2-(difluoromethoxy)-6-methoxy-4-[7-[[(3S)-pyrrolidin-3-yl]methoxy]imidazo[1,2-a]pyridin-3-yl]benzamide]: the IC50 is 0.01 to 10 nM against SIK2, 0.01 to 10 nM at SIK3 and 10 to 100 nM at SIK1.

Take `COc1cc(-c2cnc3cc(OCCN4CC5CCC(C4)O5)ccn23)cc(OC(F)F)c1C(=O)NC1CC1` [compound 195, N-cyclopropyl-2-(difluoromethoxy)-6-methoxy-4-[7-[2-(8-oxa-3-azabicyclo [3.2.1]octan-3-yl)ethoxy]imidazo[1,2-a]pyridin-3-yl]benzamide]: the IC50 on SIK2 was in the range of 0.01 to 10 nM; on SIK3, 0.01 to 10 nM; on SIK1, 10 to 100 nM.

Consider `COc1cc(-c2cnc3cc(OCC4(O)CCN(C(C)C)C4)ccn23)cc(OC(F)F)c1C(=O)NC1CC1` (stereo not drawn) [Cpd 372, N-cyclopropyl-2-(difluoromethoxy)-4-[7-[(3-hydroxy-1-isopropyl-pyrrolidin-3-yl)methoxy]imidazo[1,2-a]pyridin-3-yl]-6-methoxy-benzamide], for which the IC50 was 0.01 to 10 nM against SIK2, 0.01 to 10 nM against SIK3 and 10 to 100 nM on SIK1.

Broadly, the IC50 is the midpoint of a concentration-inhibition curve. A lower IC50 goes with inhibition by little substance.

The values are drawn from US12264156B2, “Compounds and pharmaceutical compositions thereof for the treatment of diseases” (GALAPAGOS NV, priority 2018, dated 2025).
